Source: patent publication US6562828B1, “Amidine compounds” (Japan Tobacco Inc., priority 1998, dated 2003)
Counter-ions that a name gives are not always drawn.

How the values were obtained:
normal plasma = test: Determination of prothrombin time (PT), rat plasma; assay type: biochemical
Experimental: Determination of prothrombin time (PT)
Blood was taken from mouse, rat, crab-eating monkey and healthy human volunteers, and citric acid was added. The blood was centrifuged at 4° C. and 2000 G for 15 min to obtain normal plasma of various animals.
Purified water (5 μl) containing various concentrations of test compound was added to plasma (45 μl) and the resultant mixtures were used as samples. […] (Baxter) was prepared and heated at […] for 5 min, and a sample (50 μl) was admixed with the thrombin reagent (100 μl). The time (PT) until precipitation of fibrin was measured. The drug concentration that doubled the PT hours of the drug untreated group was calculated and taken as CT2.

Human FXa = molecular target: T1, Human FXa (Homo sapiens, UniProt P00742); test: Oral administration test in monkey, human FXa inhibitory activity in plasma; assay type: in vivo; conditions: crab-eating monkey, mean ± S.D., n = 3
T1 construct: Human FXa [Enzyme research Laboratories (USA)] enzyme; purchased Enzyme Research Laboratories (USA)
Experimental: Human FXa inhibitory activity was measured as follows. Human FXa [Enzyme research Laboratories (USA)] enzyme (40 μl, 0.5 U/ml) and a 4-fold diluted plasma sample (40 μl) were incubated in 0.1M Tris-0.2M NaCl buffer (pH 8.4) (40 μl) at 37° C. for 10 min. A synthetic substrate S-2222 (Daiichi Pure Chemical (Tokyo, Japan), 40 μl) adjusted to 0.8 mM was added and the mixture was incubated at 37° C. for 5 min. The reaction was stopped by addition of 60% acetic acid (40 μl) and absorbance at 405 nm was measured by Model 3550 (BIO-RAD). For the control, serum or plasma obtained prior to blood sampling was used for measurement. Human FXa inhibitory activity was calculated as inhibition percentage (%) against control.
Oral Administration Tests in Monkey
A test compound dissolved in distilled water was orally administered to monkey (carb-eating monkey, body weight 3.5-4.5 kg) and the activity of the test compound was evaluated based on the human FXa inhibitory activity in plasma as an indicator.
At 30, 60, 120, 240, 480 min from the oral administration, blood was taken from the saphenous vein with the passage of time and the blood was centrifuged at 2000 G for 10 min. The obtained citric acid plasma was used for the determination. Human FXa inhibitory activity was determined in the same manner as in the test by intravenous administration.

T1 sequence (P00742 235-488 limits assumed): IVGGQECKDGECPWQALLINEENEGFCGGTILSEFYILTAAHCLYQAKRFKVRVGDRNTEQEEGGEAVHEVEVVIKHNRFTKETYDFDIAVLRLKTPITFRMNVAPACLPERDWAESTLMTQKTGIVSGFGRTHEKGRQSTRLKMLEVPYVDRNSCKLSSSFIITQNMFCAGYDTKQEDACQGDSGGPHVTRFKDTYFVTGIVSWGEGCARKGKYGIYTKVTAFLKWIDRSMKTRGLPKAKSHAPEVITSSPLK
T1 sequence (P00742 41-179 limits assumed): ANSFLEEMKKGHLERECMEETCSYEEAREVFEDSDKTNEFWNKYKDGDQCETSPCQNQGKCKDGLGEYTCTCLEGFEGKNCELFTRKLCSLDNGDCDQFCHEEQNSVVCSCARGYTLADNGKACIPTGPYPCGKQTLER

CC(=N)N1CCC(Oc2ccc(N(Cc3nc4cc(C(=N)N)ccc4n3CC(=O)N[C@@H](C)c3ccccc3)C(=O)c3ccc(C(=O)O)cc3)cc2)CC1 [Example 17, (S)-4-[N-[5-Amidino-1-(1-phenylethylcarbamoylmethyl)benzimidazole-2-ylmethyl]-N-[4-(1-acetimidoylpiperidin-4-yloxy)phenyl]carbamoyl]benzoic Acid Dihydrochloride]
CT2 (drug concentration that doubled the PT) (normal plasma): 2 µM | inhibition at 10 mg/kg (Human FXa; 30 minutes): 62 ± 53% | inhibition at 10 mg/kg (Human FXa; 60 minutes): 62 ± 51% | inhibition at 10 mg/kg (Human FXa; 120 minutes): 83 ± 13% | inhibition at 10 mg/kg (Human FXa; 240 minutes): 68 ± 16% | inhibition at 10 mg/kg (Human FXa; 480 minutes): 27 ± 10%
